Measurements reported in EP4635500A1, “THERAPEUTIC AGENT FOR BACTERIAL INFECTION” (Sumitomo Pharma Co., Ltd., priority 2022, dated 2024).
In brackets after ≈: the same amount, converted by molar mass.

Tests used:
Porphyromonas spp. = experiment: MIC, agar dilution, anaerobic bacteria (Example 9, Tables 19, 24); type: cell-based; settings: for MIC: (n)=Compound A µg/mL, 0=Compound A alone antibacterial
Bacteroides spp. = experiment: MIC, agar dilution, anaerobic bacteria (Example 9, Tables 17, 22); type: cell-based; settings: for MIC: (n)=Compound A µg/mL, 0=Compound A alone antibacterial

SMILES: Cc1ncc([N+](=O)[O-])n1CCO [Metronidazole]
- MIC (Porphyromonas spp.; KUB No. 6673 Porphyromonas gingivalis): ≤ 0.12 µg/mL
- MIC (Porphyromonas spp.; KUB No. 6674 Porphyromonas gingivalis): ≤ 0.12 µg/mL
- MIC (Porphyromonas spp.; KUB No. 6676 Porphyromonas gingivalis): ≤ 0.12 µg/mL
- MIC (Porphyromonas spp.; KUB No. 6677 Porphyromonas gingivalis): ≤ 0.12 µg/mL
- MIC (Porphyromonas spp.; KUB No. 6678 Porphyromonas gingivalis): ≤ 0.12 µg/mL
- MIC (Porphyromonas spp.; KUB No. 6679 Porphyromonas gingivalis): ≤ 0.12 µg/mL
- MIC (Porphyromonas spp.; KUB No. 6680 Porphyromonas gingivalis): ≤ 0.12 µg/mL
- MIC (Porphyromonas spp.; KUB No. 6681 Porphyromonas gingivalis): ≤ 0.12 µg/mL
- MIC (Porphyromonas spp.; KUB No. 6682 Porphyromonas gingivalis): ≤ 0.12 µg/mL
- MIC (Porphyromonas spp.; KUB No. 6683 Porphyromonas gingivalis): ≤ 0.12 µg/mL
- MIC (Porphyromonas spp.; KUB No. 6684 Porphyromonas gingivalis): ≤ 0.12 µg/mL
- MIC (Porphyromonas spp.; KUB No. 6685 Porphyromonas gingivalis): ≤ 0.12 µg/mL
- MIC (Porphyromonas spp.; KUB No. 6686 Porphyromonas gingivalis): ≤ 0.12 µg/mL
- MIC (Porphyromonas spp.; KUB No. 6687 Porphyromonas gingivalis): ≤ 0.12 µg/mL
- MIC (Porphyromonas spp.; KUB No. 6688 Porphyromonas gingivalis): ≤ 0.12 µg/mL
- MIC (Porphyromonas spp.; Porphyromonas, KUB No. 6665 Porphyromonas assaccharolytica): ≤ 0.12 µg/mL
- MIC50 (Porphyromonas spp.; Porphyromonas, table at the place of Table 24, Prevotella spp., read-out: MIC50): ≤ 0.12 µg/mL
- MIC90 (Porphyromonas spp.; Porphyromonas, table at the place of Table 24, Prevotella spp., read-out: MIC90): ≤ 0.12 µg/mL
- MICrange (Porphyromonas spp.; table at the place of Table 24, Prevotella spp.): ≤0.12 µg/mL
- MICrange (Bacteroides spp.; Bacteroides spp.): ≤0.12 to 2 µg/mL
- MIC50 (Bacteroides spp.; Bacteroides spp., read-out: MIC50): 1 µg/mL (≈ 5.84 µM)
- MIC90 (Bacteroides spp.; Bacteroides spp., read-out: MIC90): 1 µg/mL (≈ 5.84 µM)
- MIC (Bacteroides spp.; Bacteroides, KUB No. 2982 Bacteroidesfragilis): 1 µg/mL (≈ 5.84 µM)
- MIC (Bacteroides spp.; Bacteroides, KUB No. 6464 Bacteroides vulgarus): 0.5 µg/mL (≈ 2.92 µM)
- MIC (Bacteroides spp.; Bacteroides, KUB No. 6480 Bacteroides thetaioraomicron): 1 µg/mL (≈ 5.84 µM)
- MIC (Bacteroides spp.; Bacteroides, KUB No. 6487 Bacteroides thetaiotamicron): 0.25 µg/mL (≈ 1.46 µM)
- MIC (Bacteroides spp.; KUB No. 2977 Bacteroides thetaiotaomicron ATCC 29741): 2 µg/mL (≈ 11.7 µM)
- MIC (Bacteroides spp.; KUB No. 2983 Bacteroides fragilis): 0.25 µg/mL (≈ 1.46 µM)
- MIC (Bacteroides spp.; KUB No. 2984 Bacteroides thetaiotaomicron): 1 µg/mL (≈ 5.84 µM)
- MIC (Bacteroides spp.; KUB No. 3003 Bacteroides fragilis ATCC 25285): 0.5 µg/mL (≈ 2.92 µM)
- MIC (Bacteroides spp.; KUB No. 3009 Bacteroides ovatus): 1 µg/mL (≈ 5.84 µM)
- MIC (Bacteroides spp.; KUB No. 6458 Bacteroides fragilis): 0.5 µg/mL (≈ 2.92 µM)
- MIC (Bacteroides spp.; KUB No. 6459 Bacteroides stercoris): 1 µg/mL (≈ 5.84 µM)
- MIC (Bacteroides spp.; KUB No. 6460 Bacteroides thetaiotaomicron): 2 µg/mL (≈ 11.7 µM)
- MIC (Bacteroides spp.; KUB No. 6461 Bacteroides fragilis): 0.5 µg/mL (≈ 2.92 µM)
- MIC (Bacteroides spp.; KUB No. 6463 Bacteroides fragilis): 0.5 µg/mL (≈ 2.92 µM)
- MIC (Bacteroides spp.; KUB No. 6465 Bacteroides thetaiotaomicron): 2 µg/mL (≈ 11.7 µM)
- MIC (Bacteroides spp.; KUB No. 6466 Bacteroides fragilis): 1 µg/mL (≈ 5.84 µM)
- MIC (Bacteroides spp.; KUB No. 6467 Bacteroides fragilis): 0.5 µg/mL (≈ 2.92 µM)
- MIC (Bacteroides spp.; KUB No. 6468 Bacteroides fragilis): 1 µg/mL (≈ 5.84 µM)
- MIC (Bacteroides spp.; KUB No. 6469 Bacteroides fragilis): 1 µg/mL (≈ 5.84 µM)
- MIC (Bacteroides spp.; KUB No. 6470 Bacteroides fragilis): 2 µg/mL (≈ 11.7 µM)
- MIC (Bacteroides spp.; KUB No. 6471 Bacteroides fragilis): 1 µg/mL (≈ 5.84 µM)
- MIC (Bacteroides spp.; KUB No. 6472 Bacteroides stercoris): 0.5 µg/mL (≈ 2.92 µM)
- MIC (Bacteroides spp.; KUB No. 6473 Bacteroides fragilis): 1 µg/mL (≈ 5.84 µM)
- MIC (Bacteroides spp.; KUB No. 6474 Bacteroides fragilis): 0.5 µg/mL (≈ 2.92 µM)
- MIC (Bacteroides spp.; KUB No. 6475 Bacteroides thetaiotaomicron): 1 µg/mL (≈ 5.84 µM)
- MIC (Bacteroides spp.; KUB No. 6476 Bacteroides vulgatus): 1 µg/mL (≈ 5.84 µM)
- MIC (Bacteroides spp.; KUB No. 6477 Bacteroides fragilis): ≤ 0.12 µg/mL
- MIC (Bacteroides spp.; KUB No. 6478 Bacteroides fragilis): 0.25 µg/mL (≈ 1.46 µM)
- MIC (Bacteroides spp.; KUB No. 6481 Bacteroides fragilis): 1 µg/mL (≈ 5.84 µM)
- MIC (Bacteroides spp.; KUB No. 6483 Bacteroides fragilis): 0.25 µg/mL (≈ 1.46 µM)
- MIC (Bacteroides spp.; KUB No. 6484 Bacteroides fragilis): 0.5 µg/mL (≈ 2.92 µM)
- MIC (Bacteroides spp.; KUB No. 6485 Bacteroides vulgatus): 0.25 µg/mL (≈ 1.46 µM)
- MIC (Bacteroides spp.; KUB No. 6486 Bacteroides fragilis): 1 µg/mL (≈ 5.84 µM)
- MIC (Bacteroides spp.; KUB No. 6490 Bacteroides fragilis): 0.5 µg/mL (≈ 2.92 µM)
- MIC (Bacteroides spp.; KUB No. 6491 Bacteroides fragilis): 1 µg/mL (≈ 5.84 µM)
- MIC (Bacteroides spp.; KUB No. 6493 Bacteroides thetaiotaomicron): 1 µg/mL (≈ 5.84 µM)
- MIC (Bacteroides spp.; KUB No. 6496 Bacteroides fragilis): 1 µg/mL (≈ 5.84 µM)
- MIC (Bacteroides spp.; KUB No. 6497 Bacteroides vulgatus): 1 µg/mL (≈ 5.84 µM)
- MIC (Bacteroides spp.; KUB No. 6502 Bacteroides fragilis): 0.25 µg/mL (≈ 1.46 µM)
- MIC (Bacteroides spp.; KUB No. 6503 Bacteroides thetaiotaomicron): 1 µg/mL (≈ 5.84 µM)
- MIC (Bacteroides spp.; KUB No. 6504 Bacteroides caccae): 1 µg/mL (≈ 5.84 µM)
- MIC (Bacteroides spp.; KUB No. 6506 Bacteroides thetaiotaomicron): 1 µg/mL (≈ 5.84 µM)
- MIC (Bacteroides spp.; KUB No. 6509 Bacteroides fragilis): ≤ 0.12 µg/mL
- MIC (Bacteroides spp.; KUB No. 6511 Bacteroides salyersiae): 1 µg/mL (≈ 5.84 µM)
- MIC (Bacteroides spp.; KUB No. 6513 Bacteroides fragilis): 0.5 µg/mL (≈ 2.92 µM)
- MIC (Bacteroides spp.; KUB No. 6515 Bacteroides thetaiotaomicron): 1 µg/mL (≈ 5.84 µM)
- MIC (Bacteroides spp.; KUB No. 6518 Bacteroides fragilis): 0.5 µg/mL (≈ 2.92 µM)
- MIC (Bacteroides spp.; KUB No. 6522 Bacteroides fragilis): 1 µg/mL (≈ 5.84 µM)
- MIC (Bacteroides spp.; KUB No. 6523 Bacteroides fragilis): 1 µg/mL (≈ 5.84 µM)
- MIC (Bacteroides spp.; KUB No. 6525 Bacteroides fragilis): 1 µg/mL (≈ 5.84 µM)
- MIC (Bacteroides spp.; KUB No. 6527 Bacteroides thetaiotaomicron): 1 µg/mL (≈ 5.84 µM)
- MIC (Bacteroides spp.; KUB No. 6530 Bacteroides thetaiotaomicron): 1 µg/mL (≈ 5.84 µM)
- MIC (Bacteroides spp.; KUB No. 6535 Bacteroides fragilis): 0.5 µg/mL (≈ 2.92 µM)
- MIC (Bacteroides spp.; KUB No. 6544 Bacteroides vulgatus): 1 µg/mL (≈ 5.84 µM)
- MIC (Bacteroides spp.; KUB No. 6545 Bacteroides thetaiotaomicron): 0.5 µg/mL (≈ 2.92 µM)
- MIC (Bacteroides spp.; KUB No. 6556 Bacteroides vulgatus): 0.5 µg/mL (≈ 2.92 µM)
